This note sets out measurements from ChEMBL document CHEMBL5108051, “Improving the Antimicrobial Performance of Amphiphilic Cationic Antimicrobial Peptides Using Glutamic Acid Full-Scan and Positive Charge Compensation Strategies” (J Med Chem, 2022).

Each structure is given as a SMILES string. Calls of active or inactive are those of the source. The rule behind the calls is not given here. Bridge positions count the residues as written; N and C are the ends. Square brackets hold non-standard residues; d marks the D form. Peptide text beside a SMILES is read from it. * marks the point of attachment. X1 = CC[C@H](C)CCCCC(=O)*; Dab = NCC[C@H](N)C(=O)O

In assay [1] the test system is Escherichia coli. Briefly: Bactericidal activity against Escherichia coli ATCC 25922 at 1 times MIC measured after 2 hrs by time-killing kinetics assay. It is filed as functional.
Assay [2] relates to Escherichia coli. Kind of assay: Antibiofilm activity against Escherichia coli ATCC 25922 assessed as inhibition of biofilm formation at 2 times MIC measured after 24 hrs by crystal violet staining based assay. The format is functional, organism-based.
Assay [3] deals with Staphylococcus aureus. Briefly: Antimicrobial activity against Staphylococcus aureus ATCC 25923 in presence of MgCl2. It is filed as functional, organism-based.
For assay [4], the system named is Escherichia coli. Briefly: Bactericidal activity against Escherichia coli ATCC 25922 at 0.5 times MIC measured after 1 hr by time-killing kinetics assay. It is filed as functional.

Turning to `CC(C)C[C@H](NC(=O)[C@H](CC(C)C)NC(=O)[C@H](CCC(=O)O)NC(=O)[C@H](CCCCN)NC(=O)[C@H](CC(C)C)NC(=O)[C@H](CC(C)C)NC(=O)[C@H](CCCCN)NC(=O)[C@H](C)NC(=O)[C@@H](NC(=O)[C@H](CCCCN)NC(=O)[C@@H]1CCCN1C(=O)[C@H](CC(C)C)NC(=O)[C@@H](N)Cc1ccccc1)C(C)C)C(N)=O` (H-FLPKVAKLLKELL-NH2), the Activity in assay [1] is listed as 100%. Moreover, the result in assay [2] and in assay [3] was Active.

On to `CC[C@H](C)CCCCC(=O)N[C@@H](CCN)C(=O)N[C@H](C(=O)N[C@@H](CCN)C(=O)N[C@H]1CCNC(=O)[C@H]([C@@H](C)O)NC(=O)[C@H](CCN)NC(=O)[C@H](CCN)NC(=O)[C@H](CC(C)C)NC(=O)[C@@H](Cc2ccccc2)NC(=O)[C@H](CCN)NC1=O)[C@@H](C)O` (X1-[Dab]T[Dab][Dab][Dab][dF]L[Dab][Dab]T; lactam 4-C), for which, in assay [4], the Activity was 100%.
